# Measurements published in patent US9765115B2, “Inhibitors of metastasis, methods of generating such inhibitors and their therapeutic applications” (Board of Supervisors of Louisiana State University acting …, priority 2011, dated 2017).
# Changes are numbered by the printed parent chain. “Also recorded” adds a separate entry of the source.
# How the values were obtained:
# Type in all cases: cell-based
# [1] = tested on: PC-3CTRwt cells; test: Paracellular permeability (PCP), TRITC-dextran diffusion
# Procedure: For PCP measurements, cells were grown to confluence on Transwell filters. Tetra methyl rhodamine-dextran (1 mg/ml, ˜4 kDa, Sigma) was added to the upper chamber. Fluorescence of the lower chamber medium was measured in Modulus Microplate Reader (Turner Biosystems) at various time intervals.
# TJs form a barrier that regulates the movement of ions, solutes and growth factors between cells. To detect whether CT affects the barrier, the diffusion of fluorophore-conjugated dextran was measured across polarized PC cell line monolayers, a procedure called paracellular permeability (PCP). FIG. 2B depicts CTR-C PDZ-binding motif mutation and tight junction (TJ) disruption as measured using PCP. Polarized PC-3V, PC-3-CTRwt and PC-3CTRΔESS cells were treated with or without 50 nM CT, and PCP determined by diffusion of ˜4 kDa TRITC-conjugated dextran from the upper to the lower chamber in one hour. The results are expressed as μg/ml/hour of TRITC-Dextran diffused ±SEM (n=6; *p<0.05 (−CT v +CT, One way ANOVA and Newman-Keul's test)). […]
# The effect of CT on TJ functionality was tested by monitoring TER of PC-3CTRwt monolayers. […] TER was measured with EVOM volt-ohm meter. The results are expressed as TER ±SEM (Ωcm^2±SEM; n=6). […] PCP was determined by diffusion of ˜4 kDa TRITC-conjugated dextran from the upper to the lower chamber in one hour. […]
# [2] = biological target: T1, CTR-ZO-1 interaction (Homo sapiens, UniProt P30988); test: In situ proximity ligation assay (PLA); conditions: PC-3CTRwt cells
# T1 construct: PCR generated full length CTRwt and CTRΔESS cDNAs were cloned directionally into pcDNA3.1 mammalian expression vector; FLAG (N); expressed in transfected cells; host or cells: PC-31 / PC-3 cells stably expressing FLAG-CTRwt; ZO-1 is the cells' own
# T1 sequence (P30988 25-474): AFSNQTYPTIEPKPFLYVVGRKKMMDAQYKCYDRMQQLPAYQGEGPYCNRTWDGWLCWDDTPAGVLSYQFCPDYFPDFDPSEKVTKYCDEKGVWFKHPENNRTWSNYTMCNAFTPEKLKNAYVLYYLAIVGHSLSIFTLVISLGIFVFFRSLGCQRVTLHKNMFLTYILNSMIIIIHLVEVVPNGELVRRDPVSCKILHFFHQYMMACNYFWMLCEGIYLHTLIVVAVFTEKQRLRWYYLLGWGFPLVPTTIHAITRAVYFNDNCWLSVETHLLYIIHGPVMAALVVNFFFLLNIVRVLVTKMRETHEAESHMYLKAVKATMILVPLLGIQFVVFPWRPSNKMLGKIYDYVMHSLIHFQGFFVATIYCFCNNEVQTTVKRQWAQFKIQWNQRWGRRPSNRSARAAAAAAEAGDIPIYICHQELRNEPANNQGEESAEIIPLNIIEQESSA
# Procedure: (§1) Fixed PC cells or tissues were immunolabeled with primary antibodies (anti-rabbit ZO-1 serum and anti-goat CTR serum) for overnight at 4° C. The secondary antibodies with attached PLA probes were supplied in the Duolink™ kit (Olink Bioscience, Uppsala, Sweden). CTR-ZO-1 interaction was observed by confocal microscopy at 400×. A red fluorescent dot indicated the two proteins are within 35 nm distance. The number of dots per cell was determined by Blobfinder™ image analysis software (Allalou et al., 2009).
# (§2) Next, CTR-ZO-1 interaction was examined in PC-3CTRwt cells. […] Each dot represents an interaction between activated CTR and ZO-1, detected by in situ PLA™ using the Duolink® kit. Nuclei were stained with DAPI. The graph presents quantitative data of CTR-ZO-1 interactions in three separate but identical experiments (mean±SEM; n=6, p<0.001, paired t-test). […] Next, this phenomenon was examined in LNCaP cells, which are androgen-responsive and endogenously express CTR but not CT (Karpova et al., 2006). […] Finally, non-metastatic and metastatic PC specimens were examined in a similar experiment.
# (§3) Since CTR directly interacts with ZO-1 through PDZ domain, whether CT-induced endocytosis of ZO-1 is caused by CTR-mediated events prior to or subsequent to CTR-ZO-1 interaction was tested. To determine the time course of CTR-ZO-1 interaction, in situ PLA assay was used (FIG. 15D). […] Representative micrographs are shown of CTR-ZO-1 interactions in PC-3CTRwt cells at various time periods (0-300 seconds) after CT stimulus. Each highlighted dot represents an interaction between activated CTR and ZO-1, detected by in situ PLA™ using the Duolink® kit. Nuclei were stained with DAPI. The line graph presents the mean±SEM of dots at each time point (n=6). […] Considering that ZO-1 endocytosis was observed after 1 minute of CT stimulus, it is conceivable that CTR-mediated events subsequent to CTR-ZO-1 interaction may be associated with TJ protein endocytosis.
# [3] = biological target: T2, CTR-ZO-1 interaction (Homo sapiens, UniProt P30988, E471A/S472A/S473A); test: In situ proximity ligation assay (PLA); conditions: PC-3CTRΔESS cells, with or without CT
# T2 construct: PCR generated full length CTRwt and CTRΔESS cDNAs were cloned directionally into pcDNA3.1 mammalian expression vector; FLAG (N); expressed in transfected cells; host or cells: PC-31 / PC-3 cells stably expressing FLAG-CTRwt; ZO-1 is the cells' own
# T2 sequence (P30988 with tags, fused parts or gaps): T1 sequence (P30988 25-474) with E447A, S448A, S449A
# Procedure: as §1, §2, §3
# [4] = tested on: CTR-ZO-1 interaction; test: In situ proximity ligation assay (PLA); conditions: LNCaP cells, CT 50 nM, 30 seconds
# Procedure: as §1, §2, §3
substance,measurement,setting,value
calcitonin [CT],PCP,[1]; 50 nM CT,increased PCP significantly; also recorded: eighty percent
same,PCP at multiple CT doses,[1]; CT doses of 10 nM or higher,induced an increase
same,time of peak CTR-ZO-1 interaction after CT stimulus,[2],30 s
same,CTR-ZO-1 interactions (PLA dots),"[2]; 50 nM CT, 30 seconds",eighty-fold increase
same,CTR-ZO-1 interactions (PLA dots),[3],no CTR-ZO-1 interactions were observed
same,CTR-ZO-1 interactions (PLA dots),[4],strong interaction
